Results taken from article PMC11705089 (Nucleic Acids Research, 2025).
Where a chain is given by its changes, count along the chain named.

Experiments:
DgoR (WT DgoR-6XHis) [1] = target: T1, DgoR (WT DgoR-6XHis) (Escherichia coli, UniProt P31460, A97V); assay: label-free microscale thermophoresis; type: binding
T1 sequence (P31460 1-229 A97V): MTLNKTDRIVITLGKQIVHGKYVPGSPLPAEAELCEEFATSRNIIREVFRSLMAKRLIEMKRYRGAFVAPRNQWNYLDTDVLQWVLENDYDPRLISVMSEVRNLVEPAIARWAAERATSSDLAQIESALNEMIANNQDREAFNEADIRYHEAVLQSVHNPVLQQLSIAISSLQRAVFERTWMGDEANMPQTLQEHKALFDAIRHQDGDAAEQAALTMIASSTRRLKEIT

DgoR (WT DgoR-6XHis) [2] = target: T2, DgoR (WT DgoR-6XHis) (Escherichia coli, UniProt P31460, S171L); assay: label-free microscale thermophoresis; type: binding
T2 sequence (P31460 1-229 S171L): T1 sequence (P31460 1-229 A97V) with V97A, S171L

DgoR (WT DgoR-6XHis) [3] = target: T3, DgoR (WT DgoR-6XHis) (Escherichia coli, UniProt P31460); assay: label-free microscale thermophoresis; type: binding
T3 sequence (P31460 1-229): T1 sequence (P31460 1-229 A97V) with V97A

DgoR (WT DgoR-6XHis) [4] = target: T4, DgoR (WT DgoR-6XHis) (Escherichia coli, UniProt P31460, M188I); assay: label-free microscale thermophoresis; type: binding
T4 sequence (P31460 1-229 M188I): T1 sequence (P31460 1-229 A97V) with V97A, M188I

[5] = target: DgoR-6XHis (wild-type DgoR, transcriptional repressor of D-galactonate metabolism in Escherichia coli) (Escherichia coli) (UniProt P31460); assay: SEC

Kd (DgoR (WT DgoR-6XHis) [1])	Kd (DgoR (WT DgoR-6XHis) [2])	Kd (DgoR (WT DgoR-6XHis) [3])	Kd (DgoR (WT DgoR-6XHis) [4])	stoichiometry N [5]	Compound
3.3 ± 0.3 µM	20.1 ± 0.6 µM	8.4 ± 1.3 µM	11.3 ± 0.9 µM		O=C(O)[C@H](O)[C@@H](O)[C@@H](O)[C@H](O)CO [D-galactonate]
				2	DgoR-6XHis (wild-type DgoR, transcriptional repressor of D-galactonate metabolism in Escherichia coli) (from UniProt P31460 1-229) (natural protein)
